Patent US20210153773A1, “DEVICE AND METHOD FOR DETECTION AND MONITORING OF COUGH” (priority 2019, published 2021)

System: cough reflex
Assay: Citric acid spray tussive challenge (cough provocation)
Conditions: 50 mg/mL in distilled water, perfume sprayer held about 1 foot from the nose, ~0.07 to 0.10 mL per activation, every subject tested (n=10)
Procedure: When held at about 1 foot in front of the nose and activated, a fine spray of ˜0.07 to 0.10 mL is released per activation.

O=C(O)CC(O)(CC(=O)O)C(=O)O [citric acid]
number of coughs provoked by inhaled spray: one to six
